Assay results: ChEMBL document CHEMBL3627649, “Identification of Substituted Naphthotriazolediones as Novel Tryptophan 2,3-Dioxygenase (TDO) Inhibitors through Structure-Based Virtual Screening” (J Med Chem, 2015)

Tests used:
[1] = biological target: Indoleamine 2,3-dioxygenase 1 (Homo sapiens, UniProt P14902); experiment: Inhibition of recombinant human IDO expressed in Escherichia coli incubated for 1 hr measured by fluorescence assay
[2] = biological target: Tryptophan 2,3-dioxygenase (Homo sapiens, UniProt P48775); experiment: Inhibition of recombinant human TDO expressed in Escherichia coli incubated for 1 hr measured by absorbance assay
Tryptophan 2,3-dioxygenase, sequence (P48775 whole entry): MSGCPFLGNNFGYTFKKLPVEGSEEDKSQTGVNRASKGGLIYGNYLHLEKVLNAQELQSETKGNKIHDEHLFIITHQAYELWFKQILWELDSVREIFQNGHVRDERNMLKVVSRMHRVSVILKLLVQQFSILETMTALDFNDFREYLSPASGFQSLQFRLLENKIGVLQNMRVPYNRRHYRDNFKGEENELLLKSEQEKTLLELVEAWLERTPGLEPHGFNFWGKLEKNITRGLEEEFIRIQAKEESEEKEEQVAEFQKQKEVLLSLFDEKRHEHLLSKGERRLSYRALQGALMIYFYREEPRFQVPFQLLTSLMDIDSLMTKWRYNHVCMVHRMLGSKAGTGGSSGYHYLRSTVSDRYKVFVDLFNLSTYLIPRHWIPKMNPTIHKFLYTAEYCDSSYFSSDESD

[3] = biological target: C-X-C chemokine receptor type 4 (Homo sapiens, UniProt P61073); experiment: Displacement of 125I-SDF-1 from human CXCR4 expressed in HEK293 cells incubated for 1.5 hrs by Topcount analysis; format: cell-based
C-X-C chemokine receptor type 4, sequence (P61073 whole entry): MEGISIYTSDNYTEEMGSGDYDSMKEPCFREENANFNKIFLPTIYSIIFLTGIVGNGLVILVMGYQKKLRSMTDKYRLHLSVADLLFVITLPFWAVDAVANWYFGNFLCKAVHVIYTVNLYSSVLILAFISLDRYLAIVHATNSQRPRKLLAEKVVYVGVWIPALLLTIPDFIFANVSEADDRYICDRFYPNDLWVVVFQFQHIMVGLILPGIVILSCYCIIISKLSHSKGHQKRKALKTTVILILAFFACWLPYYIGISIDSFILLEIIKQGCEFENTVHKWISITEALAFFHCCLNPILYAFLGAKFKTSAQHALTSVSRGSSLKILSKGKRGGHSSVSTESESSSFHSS

Catalase = biological target: T1, Catalase (Homo sapiens, UniProt P04040); experiment: Inhibition of catalase (unknown origin)
T1 sequence (P04040 whole entry): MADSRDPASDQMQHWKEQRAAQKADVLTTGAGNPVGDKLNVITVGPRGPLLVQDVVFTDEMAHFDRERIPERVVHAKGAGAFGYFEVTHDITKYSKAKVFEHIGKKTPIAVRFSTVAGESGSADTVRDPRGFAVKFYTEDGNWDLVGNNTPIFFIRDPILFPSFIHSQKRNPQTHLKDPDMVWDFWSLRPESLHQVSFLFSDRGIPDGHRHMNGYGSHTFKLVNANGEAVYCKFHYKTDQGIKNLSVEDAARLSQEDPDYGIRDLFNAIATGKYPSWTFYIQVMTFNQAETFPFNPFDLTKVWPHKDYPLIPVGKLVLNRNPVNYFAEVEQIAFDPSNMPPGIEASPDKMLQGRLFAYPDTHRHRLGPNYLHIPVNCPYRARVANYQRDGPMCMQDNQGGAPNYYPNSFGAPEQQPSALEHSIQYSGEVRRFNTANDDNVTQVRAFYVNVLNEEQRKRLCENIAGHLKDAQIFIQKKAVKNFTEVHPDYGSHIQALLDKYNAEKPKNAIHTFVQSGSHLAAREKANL

[4] = biological target: T2, Receptor-type tyrosine-protein kinase FLT3 (Homo sapiens, UniProt P36888); experiment: Inhibition of FLT3 (unknown origin) expressed in Sf9 insect cells for 4 hrs by Kinase-Glo assay
T2 sequence (P36888 whole entry): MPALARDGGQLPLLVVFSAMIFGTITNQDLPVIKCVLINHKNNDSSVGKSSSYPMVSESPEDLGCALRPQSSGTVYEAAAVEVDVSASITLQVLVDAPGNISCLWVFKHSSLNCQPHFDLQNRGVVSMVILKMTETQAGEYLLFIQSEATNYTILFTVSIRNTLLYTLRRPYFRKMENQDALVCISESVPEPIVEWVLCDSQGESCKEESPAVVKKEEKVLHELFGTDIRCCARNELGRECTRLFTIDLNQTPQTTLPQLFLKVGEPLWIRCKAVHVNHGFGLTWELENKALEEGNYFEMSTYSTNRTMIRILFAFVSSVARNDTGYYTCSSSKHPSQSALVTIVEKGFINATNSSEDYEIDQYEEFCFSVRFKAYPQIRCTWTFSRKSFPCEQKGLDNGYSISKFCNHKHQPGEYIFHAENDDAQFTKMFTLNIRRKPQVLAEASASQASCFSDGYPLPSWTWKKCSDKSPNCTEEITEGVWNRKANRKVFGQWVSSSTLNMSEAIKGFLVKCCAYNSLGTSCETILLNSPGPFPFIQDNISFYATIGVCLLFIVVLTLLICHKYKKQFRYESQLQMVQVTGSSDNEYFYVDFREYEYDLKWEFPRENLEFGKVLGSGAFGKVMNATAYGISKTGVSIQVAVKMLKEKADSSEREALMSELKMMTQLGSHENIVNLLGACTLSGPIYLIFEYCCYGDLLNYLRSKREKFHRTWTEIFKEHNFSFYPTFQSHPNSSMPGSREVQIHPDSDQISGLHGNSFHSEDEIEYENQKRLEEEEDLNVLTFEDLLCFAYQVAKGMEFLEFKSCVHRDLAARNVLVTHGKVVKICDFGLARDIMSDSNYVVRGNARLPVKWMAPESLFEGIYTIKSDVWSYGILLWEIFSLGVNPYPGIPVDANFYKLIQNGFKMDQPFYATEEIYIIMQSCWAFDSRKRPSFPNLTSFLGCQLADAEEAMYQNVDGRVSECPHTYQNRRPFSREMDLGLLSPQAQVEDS

Aurora kinase A = biological target: T3, Aurora kinase A (Homo sapiens, UniProt O14965); experiment: Inhibition of Aurora A (unknown origin)
T3 sequence (O14965 whole entry): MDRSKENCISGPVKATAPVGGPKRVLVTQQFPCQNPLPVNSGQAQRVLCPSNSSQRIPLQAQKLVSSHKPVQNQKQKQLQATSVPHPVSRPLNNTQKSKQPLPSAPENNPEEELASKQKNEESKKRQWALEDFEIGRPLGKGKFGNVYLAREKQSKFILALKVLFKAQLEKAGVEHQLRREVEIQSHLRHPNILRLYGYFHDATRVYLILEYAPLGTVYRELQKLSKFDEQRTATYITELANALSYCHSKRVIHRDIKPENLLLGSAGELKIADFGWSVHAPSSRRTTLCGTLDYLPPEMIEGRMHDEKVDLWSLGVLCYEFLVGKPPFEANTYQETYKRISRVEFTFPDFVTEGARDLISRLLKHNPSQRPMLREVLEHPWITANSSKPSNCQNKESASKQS

[5] = Inhibition of human muscle mitochondrial complex 1 by spectrophotometric assay
[6] = Inhibition of Dengue virus type 2 NS2B-NS3 protease
[7] = biological target: Epidermal growth factor receptor (Homo sapiens, UniProt P00533); experiment: Inhibition of human EGFR incubated for 2 hrs by Kinase-Glo luminescent kinase assay
Epidermal growth factor receptor, sequence (P00533 whole entry): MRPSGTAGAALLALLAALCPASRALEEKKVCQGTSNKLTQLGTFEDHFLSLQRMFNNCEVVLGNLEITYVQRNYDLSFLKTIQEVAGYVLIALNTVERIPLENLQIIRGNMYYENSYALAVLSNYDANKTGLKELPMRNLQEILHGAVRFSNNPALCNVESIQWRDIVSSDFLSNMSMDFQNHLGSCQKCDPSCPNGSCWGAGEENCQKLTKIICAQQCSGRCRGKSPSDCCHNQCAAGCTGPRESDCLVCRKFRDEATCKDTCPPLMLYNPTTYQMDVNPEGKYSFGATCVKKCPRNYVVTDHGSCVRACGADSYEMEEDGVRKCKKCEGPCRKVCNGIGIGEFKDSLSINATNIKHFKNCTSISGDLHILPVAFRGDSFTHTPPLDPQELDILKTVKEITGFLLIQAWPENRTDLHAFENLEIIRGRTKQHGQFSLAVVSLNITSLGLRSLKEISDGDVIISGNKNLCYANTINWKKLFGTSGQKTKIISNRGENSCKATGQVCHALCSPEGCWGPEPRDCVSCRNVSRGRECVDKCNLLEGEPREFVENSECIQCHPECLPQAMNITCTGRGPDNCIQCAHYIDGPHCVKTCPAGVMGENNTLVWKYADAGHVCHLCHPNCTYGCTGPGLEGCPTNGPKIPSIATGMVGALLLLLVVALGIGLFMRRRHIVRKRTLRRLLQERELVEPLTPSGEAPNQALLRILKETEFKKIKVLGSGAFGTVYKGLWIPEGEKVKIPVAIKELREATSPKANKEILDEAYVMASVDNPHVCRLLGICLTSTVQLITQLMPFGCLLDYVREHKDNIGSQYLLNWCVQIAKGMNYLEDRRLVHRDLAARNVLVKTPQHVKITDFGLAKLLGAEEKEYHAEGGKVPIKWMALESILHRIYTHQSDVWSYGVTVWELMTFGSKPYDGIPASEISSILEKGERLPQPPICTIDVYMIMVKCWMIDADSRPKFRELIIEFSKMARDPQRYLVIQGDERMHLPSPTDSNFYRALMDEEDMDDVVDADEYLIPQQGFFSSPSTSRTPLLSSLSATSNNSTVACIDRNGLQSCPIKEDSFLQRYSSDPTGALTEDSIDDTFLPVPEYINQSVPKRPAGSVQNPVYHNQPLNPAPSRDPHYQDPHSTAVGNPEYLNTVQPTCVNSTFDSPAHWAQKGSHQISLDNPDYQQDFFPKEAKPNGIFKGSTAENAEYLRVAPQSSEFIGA

Mu-type opioid receptor = Mu-type opioid receptor (Homo sapiens, UniProt P35372); experiment: Inhibition of recombinant mu-opioid receptor (unknown origin) expressed in CHO cells for 60 mins; format: cell-based
Mu-type opioid receptor, sequence (P35372 whole entry): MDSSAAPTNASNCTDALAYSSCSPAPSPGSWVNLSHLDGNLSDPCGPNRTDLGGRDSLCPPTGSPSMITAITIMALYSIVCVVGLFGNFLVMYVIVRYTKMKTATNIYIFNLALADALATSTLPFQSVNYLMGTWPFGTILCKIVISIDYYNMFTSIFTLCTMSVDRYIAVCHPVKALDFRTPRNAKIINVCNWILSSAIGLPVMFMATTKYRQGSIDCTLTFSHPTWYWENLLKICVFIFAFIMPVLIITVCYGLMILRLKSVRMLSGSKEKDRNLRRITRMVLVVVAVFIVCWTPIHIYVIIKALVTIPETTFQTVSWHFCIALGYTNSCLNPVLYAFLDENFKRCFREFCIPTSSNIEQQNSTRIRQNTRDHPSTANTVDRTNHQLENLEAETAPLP

[8] = Redox cycling activity of the compound assessed as H2O2 production incubated for 15 mins by HRP-PR assay in presence of 0.8 mM DTT
[9] = biological target: T4, Tyrosine-protein phosphatase non-receptor type 1 (Homo sapiens, UniProt P18031); experiment: Inhibition of human PTP1B preincubated with protein for 15 mins followed by DiFMUP addition for 1 hr measured by fluorescence analysis
T4 sequence (P18031 whole entry): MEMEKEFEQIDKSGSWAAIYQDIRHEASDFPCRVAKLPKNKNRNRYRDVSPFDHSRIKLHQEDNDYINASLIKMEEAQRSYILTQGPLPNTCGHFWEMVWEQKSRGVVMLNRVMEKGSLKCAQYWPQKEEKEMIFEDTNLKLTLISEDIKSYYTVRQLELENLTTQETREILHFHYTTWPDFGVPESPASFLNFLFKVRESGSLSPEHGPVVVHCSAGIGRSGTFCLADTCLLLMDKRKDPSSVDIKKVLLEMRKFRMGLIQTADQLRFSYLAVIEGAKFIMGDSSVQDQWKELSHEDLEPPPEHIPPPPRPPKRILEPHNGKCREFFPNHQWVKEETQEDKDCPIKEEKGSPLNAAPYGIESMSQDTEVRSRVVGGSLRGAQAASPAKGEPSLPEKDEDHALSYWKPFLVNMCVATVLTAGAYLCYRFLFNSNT

Indoleamine 2,3-dioxygenase 1, sequence (P14902 whole entry): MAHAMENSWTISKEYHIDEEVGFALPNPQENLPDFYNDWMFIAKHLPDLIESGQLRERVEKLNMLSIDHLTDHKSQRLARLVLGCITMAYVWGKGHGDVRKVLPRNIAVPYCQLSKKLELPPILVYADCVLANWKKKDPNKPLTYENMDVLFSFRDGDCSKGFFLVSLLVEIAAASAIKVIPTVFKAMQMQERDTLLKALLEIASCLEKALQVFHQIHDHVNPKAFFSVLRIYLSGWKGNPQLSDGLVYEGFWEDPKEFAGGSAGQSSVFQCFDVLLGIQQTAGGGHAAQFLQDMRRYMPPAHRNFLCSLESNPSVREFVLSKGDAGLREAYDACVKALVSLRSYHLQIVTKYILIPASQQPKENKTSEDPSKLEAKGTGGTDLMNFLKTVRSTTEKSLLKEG

Row | SMILES | IC50 [1] [nM] | IC50 [2] [nM] | other results
1 | Cc1cccc(Cn2nnc3c2C(=O)c2ccccc2C3=O)c1 | 4610 | 1750 | 
2 | CC(=O)N1CCN(C(=O)c2cccc(Cn3nnc4c3C(=O)c3ccccc3C4=O)c2)CC1 | 602 | 59 | 
3 | Cc1ccc(Cn2nnc3c2C(=O)c2ccccc2C3=O)cc1 | 1770 | 1090 | 
4 | O=C1c2ccccc2C(=O)c2c1nnn2Cc1ccc(C(=O)N2CCOCC2)cc1 | 982 | 116 | 
5 | O=C1c2ccccc2C(=O)c2c1nnn2Cc1ccc(Br)cc1 | > 10000 | 1590 | 
6 | O=C(O)c1cccc(Cn2nnc3c2C(=O)c2ccccc2C3=O)c1 | 1240 | 167 | 
7 | O=C(O)c1ccc(Cn2nnc3c2C(=O)c2ccccc2C3=O)cc1 | 2320 | 312 | 
8 | Cc1ccccc1Cn1nnc2c1C(=O)c1ccccc1C2=O | 809 | 561 | IC50 [3]: > 10000 nM; IC50 (Catalase): > 10000 nM; IC50 [4]: > 10000 nM; IC50 (Aurora kinase A): > 10000 nM; IC50 [5]: > 10000 nM; IC50 [6]: > 10000 nM; IC50 [7]: > 10000 nM; IC50 (Mu-type opioid receptor): > 10000 nM
9 | CCN(CC)C(=O)c1cccc(Cn2nnc3c2C(=O)c2ccccc2C3=O)c1 | 977 | 90 | 
10 | CCN(CC)C(=O)Cc1ccc(Cn2nnc3c2C(=O)c2ccccc2C3=O)cc1 | 922 | 145 | 
11 | O=C1c2ccccc2C(=O)c2c1nnn2Cc1ccc(Cl)cc1 | > 10000 | 6460 | 
12 | CC(=O)N1CCN(C(=O)c2ccc(Cn3nnc4c3C(=O)c3ccccc3C4=O)cc2)CC1 | 1100 | 176 | 
13 | CN1CCN(C(=O)c2cccc(Cn3nnc4c3C(=O)c3ccccc3C4=O)c2)CC1 | 640 |  | IC50 [3]: > 10000 nM; IC50 (Catalase): > 10000 nM; IC50 [4]: > 10000 nM; AC50 [8]: > 50000 nM; IC50 (Aurora kinase A): > 10000 nM; IC50 [9]: > 10000 nM; IC50 [5]: > 10000 nM; IC50 [6]: > 10000 nM; IC50 [7]: > 10000 nM; IC50 (Mu-type opioid receptor): > 10000 nM
14 | COC1CCN(C(=O)c2ccc(Cn3nnc4c3C(=O)c3ccccc3C4=O)cc2)CC1 | 1590 | 209 | 
15 | O=C1c2ccccc2C(=O)c2c1nnn2Cc1ccc(F)cc1 | 2590 | 7380 | 
16 | CCN(CC)C(=O)c1ccc(Cn2nnc3c2C(=O)c2ccccc2C3=O)cc1 | 1930 | 181 | 
17 | O=C1c2ccccc2C(=O)c2c1nnn2Cc1cccc(Br)c1 | 3160 | 768 | 
18 | O=C1c2ccccc2C(=O)c2c1nnn2Cc1cccc(C(=O)N2CCOCC2)c1 | 936 | 48 | 
19 | CN1CCN(C(=O)c2ccc(Cn3nnc4c3C(=O)c3ccccc3C4=O)cc2)CC1 | 2070 | 108 | 
20 | O=C1c2ccccc2C(=O)c2c1nnn2Cc1cccc(Cl)c1 | 767 | 711 | AC50 [8]: > 50000 nM; IC50 [9]: > 10000 nM
